Target: TNFα (Homo sapiens, UniProt P01375)
Assay: TNF induced HEK-Blue assay (NF-kB-driven secreted alkaline phosphatase reporter)
Type: cell-based
Conditions: TNF induced HEK-Blue assay IC50 value, TNFα 0.5 ng/mL, HEK-Blue-CD40L cells, 18 h
Procedure: TNF or CD40L-Induced HEK-Blue Assay
Test compounds serially diluted in DMSO were plated in an assay plate (LABCYTE, Cat. # LP-0200) at final concentrations ranging from 0.004 μM to 25 μM. TNFα (final concentration 0.5 ng/mL) or CD40L (final concentration 30 ng/mL) in assay buffer [DMEM, 4.5 g/l glucose (Gibco, Cat. 21063-029), 10% FBS (Sigma, F4135), 1% Penicillin-Streptomycin (Gibco, Cat. 15140-122), 1% Anti-Anti (Gibco, Cat. 15240-112) and 2 mM L-glutamine (Gibco, Cat. 25030-081)] was then added to the assay plate. After a 30 minute pre-incubation at 37° C. and 5% CO2, HEK-Blue™-CD40L cells (INVIVOGEN, Cat. Code hkb-cd40) containing a NF-kB-driven secreted alkaline phosphatase reporter gene were seeded into the assay plate at a density of 20,000 cells per well. This plate was then incubated for 18 h at 37° C. and 5% CO2. Secreted alkaline phosphatase expression was measured using QUANTI-Blue™ (INVIVOGEN, Cat. Code rep-qb1) according to manufacturer's specifications and the assay plate was read on a PerkinElmer Envision at 620 nm.
Inhibition data for the test compound over a range of concentrations was plotted as percentage inhibition of the test compound (100%=maximum inhibition). IC50 values were determined after correcting for background [(sample read-mean of low control)/(mean of high control-mean of low control)] where by the low control is DMSO without stimulation and high control is DMSO with stimulation. The IC50 is defined as the concentration of test compound which produces 50% inhibition and was quantified using the 4 parameter logistic equation to fit the data.

Chain of TNFα (P01375 77-233 limits assumed): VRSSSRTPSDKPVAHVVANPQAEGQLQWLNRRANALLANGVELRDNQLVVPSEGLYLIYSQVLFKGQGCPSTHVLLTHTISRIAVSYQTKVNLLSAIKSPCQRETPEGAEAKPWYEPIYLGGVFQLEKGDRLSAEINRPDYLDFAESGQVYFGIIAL

| IC50 | SMILES |
| --- | --- |
| < 1000 nM | C[C@@H](Nc1c(Cl)cnc2ccc(-c3cnc(C(C)(C)O)nc3)cc12)c1cc(N2CCCC2)ccc1F [Example 364, (R)-2-(5-(3-chloro-4-((1-(2-fluoro-5-(pyrrolidin-1-yl)phenyl)ethyl)amino)quinolin-6-yl)pyrimidin-2-yl)propan-2-ol] |

Same assay, conditions: TNFα 0.5 ng/mL, HEK-Blue-CD40L cells, 18 h; read-out: TNF induced HEK-Blue assay IC50 value

| SMILES | IC50 |
| --- | --- |
| CC(Nc1c(Cl)cnc2ccc(-c3ccc(C(C)(C)O)cc3)cc12)c1cnsc1 (racemic) [Example 172, 2-(4-(3-chloro-4-((1-(isothiazol-4-yl)ethyl)amino)quinolin-6-yl)phenyl)propan-2-ol] | 10000 to 25000 nM |
| Fc1ccc(Br)cc1[C@H](Nc1c(Cl)cnc2ccccc12)C(F)F [Example 509, (S)—N-(1-(5-bromo-2-fluorophenyl)-2,2-difluoroethyl)-3-chloroquinolin-4-amine] | 1000 to 10000 nM |
| C[C@@H](Nc1c(Cl)cnc2cc(F)c(-c3ccc(N4CCN(CC(=O)O)CC4)cc3)cc12)c1ccccc1F [Example 280, (R)-2-(4-(4-(3-chloro-7-fluoro-4-((1-(2-fluorophenyl)ethyl)amino)quinolin-6-yl)phenyl)piperazin-1-yl)acetic acid] | < 1000 nM |
| CC(C)(O)c1ncc(-c2ccc3ncc(Cl)c(NC(c4ccccc4F)C4CC4)c3c2)cn1 (racemic) [Example 191, 2-(5-(3-chloro-4-((cyclopropyl(2-fluorophenyl)methyl)amino)quinolin-6-yl)pyrimidin-2-yl)propan-2-ol] | < 1000 nM |
| COc1ccncc1-c1ccc(F)c([C@@H](C)Nc2c(Cl)cnc3ccccc23)c1 [Example 548, (R)-3-chloro-N-(1-(2-fluoro-5-(4-methoxypyridin-3-yl)phenyl)ethyl) quinolin-4-amine] | < 1000 nM |
| C[C@@H](Nc1c(Cl)cnc2ccccc12)c1cc(-c2cnc(C3CC3)nc2)ccc1F [Example 519, (R)-3-chloro-N-(1-(5-(2-cyclopropylpyrimidin-5-yl)-2-fluorophenyl)ethyl) quinolin-4-amine] | 1000 to 10000 nM |
| Cc1ncccc1-c1ccc(F)c([C@@H](C)Nc2c(Cl)cnc3ccccc23)c1 [Example 475, (R)-3-chloro-N-(1-(2-fluoro-5-(2-methylpyridin-3-yl)phenyl)ethyl)quinolin-4-amine] | 1000 to 10000 nM |
| CC1=C(CC(C)Nc2c(Cl)cnc3ccc(-c4cnc(C(C)(C)O)nc4)cc23)CCC1(C)C (racemic) [Example 134, 2-(5-(3-chloro-4-((1-(2,3,3-trimethylcyclopent-1-en-1-yl)propan-2-yl)amino)quinolin-6-yl)pyrimidin-2-yl) propan-2-ol] | 1000 to 10000 nM |
| CC(Nc1c(Cl)cnc2c(Cl)cc(-c3cnn(C)c3)cc12)c1ccccc1F (racemic) [Example 20, 3,8-dichloro-N-(1-(2-fluorophenyl)ethyl)-6-(1-methyl-1H-pyrazol-4-yl)quinolin-4-amine] | 10000 to 25000 nM |
| O=C(O)CN1CCN(c2ncc(-c3ccc4ncc(Cl)c(N[C@@H](c5ccccc5F)C(F)F)c4c3)cn2)CC1=O [Example 76, (S)-2-(4-(5-(3-chloro-4-((2,2-difluoro-1-(2-fluorophenyl)ethyl)amino)quinolin-6-yl)pyrimidin-2-yl)-2-oxopiperazin-1-yl)acetic acid] | < 1000 nM |
| CC(Nc1c(Cl)cnc2cc(F)c(-c3ccc(C(O)CN4CCOCC4)cc3)cc12)c1ccccc1F (stereo not drawn) [Example 288, 1-(4-(3-chloro-7-fluoro-4-((1-(2-fluorophenyl)ethyl)amino)quinolin-6-yl)phenyl)-2-morpholinoethan-1-ol] | 1000 to 10000 nM |
| COc1cncc(-c2ccc(F)c([C@@H](C)Nc3c(Cl)cnc4ccccc34)c2)c1 [Example 522, (R)-3-chloro-N-(1-(2-fluoro-5-(5-methoxypyridin-3-yl)phenyl)ethyl)quinolin-4-amine] | < 1000 nM |
| C[C@@H](Nc1c(Cl)cnc2ccc(-c3cnc(C4(O)COC4)nc3)cc12)c1ccccc1F [Example 227, (R)-3-(5-(3-chloro-4-((1-(2-fluorophenyl)ethyl)amino)quinolin-6-yl)pyrimidin-2-yl)oxetan-3-ol] | < 1000 nM |
| C[C@@H](Nc1c(Cl)cnc2ccc(-c3cnc(NC4(C(N)=O)CC4)nc3)cc12)c1ccccc1F [Example 587, (R)-1-((5-(3-chloro-4-((1-(2-fluorophenyl)ethyl)amino)quinolin-6-yl)pyrimidin-2-yl)amino)cyclopropane-1-carboxamide] | < 1000 nM |
| C[C@@H](Nc1c(Cl)cnc2ccccc12)c1cc(-c2cnn(Cc3ccccc3)c2)ccc1F [Example 466, (R)—N-(1-(5-(1-benzyl-1H-pyrazol-4-yl)-2-fluorophenyl)ethyl)-3-chloroquinolin-4-amine] | 10000 to 25000 nM |

Second part, the compound after the results:

| IC50 | SMILES |
| --- | --- |
| < 1000 nM | Cc1nc2ccc(-c3cnc(C(C)(C)O)nc3)cc2c(N[C@H](C)c2cc(C(O)CO)ccc2F)c1Cl (mixture of isomers) [Example 397, 1-(3-((R)-1-((3-chloro-6-(2-(2-hydroxypropan-2-yl)pyrimidin-5-yl)-2-methylquinolin-4-yl)amino)ethyl)-4-fluorophenyl)ethane-1,2-diol] |
| < 1000 nM | CC(C)(O)c1ccc(-c2cc3c(N[C@@H](c4ccccc4F)C(F)F)c(Cl)cnc3cc2F)cn1 [Example 270, (S)-2-(5-(3-chloro-4-((2,2-difluoro-1-(2-fluorophenyl)ethyl)amino)-7-fluoroquinolin-6-yl)pyridin-2-yl)propan-2-ol] |
| < 1000 nM | Cc1nc2ccc(-c3ccc(C(C)(C)O)cc3)cc2c(N[C@H](C)c2ccccc2F)c1Cl [Example 500, (R)-2-(4-(3-chloro-4-((1-(2-fluorophenyl)ethyl)amino)-2-methylquinolin-6-yl)phenyl)propan-2-ol] |
| < 1000 nM | C[C@@H](Nc1c(Cl)cnc2ccc(-c3cnc(C(C)(C)O)nc3)cc12)c1cc(-n2cnnc2)ccc1F [Example 371, (R)-2-(5-(3-chloro-4-((1-(2-fluoro-5-(4H-1,2,4-triazol-4-yl)phenyl)ethyl)amino)quinolin-6-yl)pyrimidin-2-yl)propan-2-ol] |
| 1000 to 10000 nM | Cc1nc2cc(F)c(-c3cnc(C(C)(C)O)nc3)nc2c(N[C@H](C)c2cc(C(O)CO)ccc2F)c1Cl (stereo partly drawn) [Example 570, 1-(3-((R)-1-((3-chloro-7-fluoro-6-(2-(2-hydroxypropan-2-yl)pyrimidin-5-yl)-2-methyl-1,5-naphthyridin-4-yl)amino)ethyl)-4-fluorophenyl)ethane-1,2-diol] |
| < 1000 nM | COc1ccc(F)c([C@@H](C)Nc2c(Cl)cnc3ccc(-c4cnc(C(C)(C)O)nc4)cc23)c1 [Example 327, (R)-2-(5-(3-chloro-4-((1-(2-fluoro-5-methoxyphenyl)ethyl)amino)quinolin-6-yl)pyrimidin-2-yl)propan-2-ol] |
| < 1000 nM | Cc1nc2ccc(-c3cnc(C(C)(C)O)nc3)cc2c(N[C@H](C)c2cc(OCCCO)ccc2F)c1Cl [Example 444, (R)-3-(3-(1-((3-chloro-6-(2-(2-hydroxypropan-2-yl)pyrimidin-5-yl)-2-methylquinolin-4-yl)amino)ethyl)-4-fluorophenoxy)propan-1-ol] |
| < 1000 nM | C[C@@H](Nc1c(Cl)cnc2ccc(-c3cnc(C(C)(C)O)nc3)cc12)c1cc(-c2cncnc2)ccc1F [Example 340, (R)-2-(5-(3-chloro-4-((1-(2-fluoro-5-(pyrimidin-5-yl)phenyl)ethyl)amino)quinolin-6-yl)pyrimidin-2-yl) propan-2-ol] |

Reference: patent publication US10865191B2, “Heterocyclic compounds useful as modulators of TNF alpha” (BRISTOL-MYERS SQUIBB COMPANY, priority 2015, dated 2020)
